≈ marks a conversion by molar mass, not a printed value. Read-outs that look alike come from different tables or passages of the source.
How the values were obtained:
[1] = agricultural fungicides, Table B
[2] = Margin of exposure versus NOEL (estimated total daily dose to a child in a swimming pool); conditions: for Margin of Exposure vs NOEL: agricultural fungicides, Table B; for Margin of Exposure vs NOEL (Target > 100): herbicides, Table A, ratio of NOEL to estimated daily dose, 10 ppm in pool water, child 22 kg, 3 hours per day
Method: The herbicide preferably has a margin of exposure versus no observed effect level (“NOEL”) value of greater than 10, more preferably greater than 50, especially greater than 80, and more especially greater than 99. The margin of exposure versus NOEL is determined by estimating the total daily dose of the herbicide to a child in a swimming pool and determining the ratio of the NOEL to this. The total daily exposure may be estimated as follows. Oral exposure is estimated by assuming that the swimmer is in the water 3 hours per day, and that the swimmer ingests 50 milliliters of pool water per hour of swimming. It is also assumed that the herbicide will be present in the pool water at a concentration of 10 parts per million, equivalent to 10 milligrams per liter of pool water. The daily oral exposure is therefore estimated as the product of the swimming duration, the ingestion rate, and the concentration in the pool water. Dermal exposure is estimated by assuming the swimmer is in the water 3 hours per day, that the total body surface area, 8800 square centimeters, is immersed in the water, and that the herbicide permeates the skin at a rate, expressed in centimeters per hour, predicted by a model for skin permeation based on chemical structure, the Skinperm model, developed by W. F. ten Berge. A short description of the Skinperm model, can be accessed at: http://home.wxs.nl/˜wtberge/, which is incorporated herein by reference. The daily dermal exposure is then estimated as the product of the permeation rate, the concentration of the herbicide in the pool water (expressed in milligrams per cubic centimeter), the swimming duration, and the total body surface area. The total daily exposure is estimated as the sum of the daily oral and daily dermal exposure. The daily dose, expressed in milligrams per kilogram bodyweight per day, is then estimated as the total daily exposure divided by an assumed body weight of 22 kilograms.

[3] = test system: mustard algae; test: Remedial laboratory study on algae, change in turbidity; conditions: for Change in Turbidity at active agent (ppm) five days post treatment: 5 ppm: 5 ppm active ingredient; for Change in Turbidity at active agent (ppm) five days post treatment: 5 ppm / Change in Turbidity at active agent (ppm) five days post treatment: 10 ppm: initial absorbance 0.10; for Change in Turbidity at active agent (ppm) five days post treatment: 10 ppm: 10 ppm active ingredient; for water turbidity: indicating killing of the mustard algae
[4] = Method: The margin of exposure versus NOEL is determined by estimating the total daily dose of the herbicide to a child in a swimming pool and determining the ratio of the NOEL to this. The total daily exposure may be estimated as follows. Oral exposure is estimated by assuming that the swimmer is in the water 3 hours per day, and that the swimmer ingests 50 milliliters of pool water per hour of swimming. It is also assumed that the herbicide will be present in the pool water at a concentration of 10 parts per million, equivalent to 10 milligrams per liter of pool water. The daily oral exposure is therefore estimated as the product of the swimming duration, the ingestion rate, and the concentration in the pool water. Dermal exposure is estimated by assuming the swimmer is in the water 3 hours per day, that the total body surface area, 8800 square centimeters, is immersed in the water, and that the herbicide permeates the skin at a rate, expressed in centimeters per hour, predicted by a model for skin permeation based on chemical structure, the Skinperm model, developed by W. F. ten Berge. A short description of the Skinperm model, can be accessed at: http://home.wxs.nl/˜wtberge/, which is incorporated herein by reference. The daily dermal exposure is then estimated as the product of the permeation rate, the concentration of the herbicide in the pool water (expressed in milligrams per cubic centimeter), the swimming duration, and the total body surface area. The total daily exposure is estimated as the sum of the daily oral and daily dermal exposure. The daily dose, expressed in milligrams per kilogram bodyweight per day, is then estimated as the total daily exposure divided by an assumed body weight of 22 kilograms.
The margin of exposure versus RfD is determined by estimating the total daily dose of the herbicide to a child in a swimming pool, as described above, and determining the ratio of the RfD to this (i.e. margin of exposure/RfD).

[5] = water, cited from earlier work
[6] = test system: mustard algae; test: Preventative laboratory study on algae, visual growth score
[7] = herbicides, Table A, 10 ppm in pool water, child 22 kg
[8] = agricultural fungicides, Table B

| Structure (SMILES) | Margin of Exposure vs. RfD [1] | Margin of Exposure vs NOEL [2] | Change in Turbidity at active agent (ppm) five days post treatment: 5 ppm ([3]; Table 2) | Change in Turbidity at active agent (ppm) five days post treatment: 10 ppm ([3]; Table 2) | Solubility [5, 8] [mg/L] | further results |
| --- | --- | --- | --- | --- | --- | --- |
| CC(=O)O.CCCCCCCCCCCCNC(=N)N [Dodine, 1-dodecylguanidine acetate] | 0.02 | 17 | −0.03 | −0.04 | – | comments (Remedial Algae Control) ([3]; Table 2): algicidal activity; water turbidity ([3]; Table 2): decreased significantly |
| CC(C)N1C(=O)c2ccccc2NS1(=O)=O [Bentazon, 3-isopropyl-1H-2,1,3-benzothiadiazin-4(3H)-one 2,2-dioxide] | – | – | – | – | – | Margin of Exposure vs. RfD (Target > 1) [4, 7]: 0.4; Margin of Exposure vs NOEL (Target > 100) [2]: 41; Solubility ([5]; herbicides, Table A): 2300 mg/1 |
| CCCOC(=O)NCCCN(C)C.Cl [Propamocarb, Propyl 3-(dimethylamino)propylcarbamate-hydrochloride] | 1.4 | 438 | – | – | – | – |
| COCC(=O)N(c1c(C)cccc1C)C(C)C(=O)OC (racemic) [Metalaxyl, N-(2,6-dimethylphenyl)-N-(methoxyacetyl)-DL-alaninemethyl ester] | 1 | 98 | – | – | 8400 (≈ 30100 µM) | – |
| CCSC(=O)N(CC)C1CCCCC1 [Cycloate, S-ethyl cyclohexyl(ethyl)thiocarbamate] | 0.001 | 1 | 0.00 | −0.01 | – | comments (Remedial Algae Control) ([3]; Table 2): algicidal activity; water turbidity ([3]; Table 2): decreased significantly |
| COC(=O)c1c(Cl)nn(C)c1S(=O)(=O)NC(=O)Nc1nc(OC)cc(OC)n1 [Halosulfuronmethyl, Methyl 5-{[(4,6-dimethoxy-2-pyrimidinyl)amino]carbonylaminosulfonyl}-3-chloro-1-methyl-1H-pyrazole-4-carboxylate] | – | – | – | – | – | Margin of Exposure vs. RfD (Target > 1) [4, 7]: 1.3; Margin of Exposure vs NOEL (Target > 100) [2]: 133; Solubility ([5]; herbicides, Table A): 15 mg/1 |
| CC1=C(C(=O)Nc2ccccc2)SCCO1 [Carboxin, 5,6-dihydro-2-methyl-N-phenyl-1,4-oxathiin-3-carboxamide] | 1.2 | 116 | 0.01 | −0.01 | – | comments (Remedial Algae Control) ([3]; Table 2): algicidal activity; water turbidity ([3]; Table 2): decreased significantly |
| CO/C=C(/C(=O)OC)c1ccccc1Oc1cc(Oc2ccccc2C#N)ncn1 [Azoxystrobin, Methyl (E)-2-2-6-(2-cyanophenoxy)pyrimidin-4-yloxyphenyl-3-methoxyacrylate] | 2.4 | 240 | – | – | 10 (≈ 24.8 µM) | – |
| N#Cc1c[nH]cc1-c1cccc2c1OC(F)(F)O2 [Fludioxonil, 4-(2,2-difluoro-1,3-bezodioxol-4-yl)-1Hpyrrole-3-carbonitrile] | 0.4 | 44 | – | – | – | – |
| CC(C)(C)C(O)C(Oc1ccc(Cl)cc1)n1cncn1 (stereo not drawn) [Triademenol, Beta-(4-chlorophenoxy)-alpha-(1,1-dimethylethyl)-1-1H-1,2,4-triazole-1-ethanol] | 0.5 | 50 | – | – | 260 (≈ 879 µM) | – |
| Nc1cnn(-c2ccccc2)c(=O)c1Cl [Chloridazon, 5-amino-4-chloro-2-phenyl-3(2H)-pyridazinone] | – | – | +0.15 | +0.05 | – | comments (Remedial Algae Control) ([3]; Table 2): Algistatic. More; Solubility ([5]; herbicides, Table A): 340 mg/1 |
| COC(=O)c1cccc(C)c1S(=O)(=O)NC(=O)Nc1nc(OCC(F)(F)F)nc(N(C)C)n1 [Triflusulfuronmethyl] | – | – | +0.04 | +0.03 | – | Margin of Exposure vs NOEL (Target > 100) [2]: 33; comments (Remedial Algae Control) ([3]; Table 2): Algistatic.; Solubility ([5]; herbicides, Table A): 110-11000 mg/1 |
| CC(C)(C)C(=O)C(Oc1ccc(Cl)cc1)n1cncn1 (stereo not drawn) [Triademefon, 1-(4-chlorophenoxy)-3,3-dimethyl-1-(1H-1,2,4-triazol-1-yl)-2-butanone] | 0.4 | 104 | – | – | 260 (≈ 885 µM) | – |
| CC1(C)CON(Cc2ccccc2Cl)C1=O [Clomazone, 2-[(2-chlorophenyl)methyl]-4,4-dimethyl-3-isoxazolidinone] | – | – | +0.10 | +0.10 | – | Margin of Exposure vs. RfD (Target > 1) ([4]; human, 3 hours per day, 10 ppm): 0.02; Margin of Exposure vs NOEL (Target > 100) [2]: 41; Score @ ppm active agent: 0 ([6]; 0 ppm, visual score 0 to 4, 10 days, 27° C.): 4; Score @ ppm active agent: 10 ([6]; 10 ppm, visual score 0 to 4, 10 days, 27° C.): 4; Score @ ppm active agent: 15 ([6]; 15 ppm, visual score 0 to 4, 10 days, 27° C.): 3; Comments (Preventive Algae Control) ([6]; Table 1): heavy growth |
| C=CCOC(Cn1ccnc1)c1ccc(Cl)cc1Cl (stereo not drawn) [Imazalil, 1-[2-(2,4-dichlorophenyl)-2-(2-propenyloxy)ethyl]-1H-imidazole] | 0.2 | 17 | – | – | 1400 (≈ 4710 µM) | – |
| CCCCc1c(C)nc(NCC)[nH]c1=O [Ethirimol, 5-butyl-2-ethylamino-6-methylpyrimidin-4-ol] | – | – | – | – | 250 (≈ 1190 µM) | – |
| CC(C)(C)C(O)(CCc1ccc(Cl)cc1)Cn1cncn1 (stereo not drawn) [Tebuconazole, H-1,2,4-triazole-1-ethanol-alpha-[2-(4-chlorophenyl)-ethyl]-alpha-(1,1-dimethylethyl)] | 0.4 | 13 | – | – | – | Turbidity @ 5 ppm active ingredient (Change in Turbidity at five days post treatment) ([3]; 5 ppm, Table 4): +0.09; Turbidity @ 10 ppm active ingredient (Change in Turbidity at five days post treatment) ([3]; 10 ppm, Table 4): +0.24; comments (Remedial Algae Control) ([3]; Table 4): more effective; Score @ 10 ppm ([6]; 10 ppm, visual score 0 to 4, 10 days, Table 3): 2; Score @ 15 ppm active ingredient ([6]; 15 ppm, visual score 0 to 4, 10 days, Table 3): 1; Comments (Preventive Algae Control) ([6]; Table 3, at 15 ppm): very little growth |

Reference: patent publication US6710017B2, “Compositions and methods for controlling algae in recirculating water systems” (Avecia, Inc., priority 2000, dated 2004)
